In one series the test system is linear DNA. Briefly: Binding assay with a linear DNA. As to conditions: in a certain period of time.
For the next series, the system named is supercoiled plasmid DNA. Description: Mixing with supercoiled plasmid DNA, electrophoresis. As to conditions: electrophoresis after a period of time. It counts as binding.
Series [1] deals with supercoiled plasmid (pcDNA) with or without T4 GP41 DNA helicase. Description: DNA binding test involving helicase (gel electrophoresis). The class given is biochemical. As to conditions: Test 1 vs Test 4; 0.1 mmol/L, 1 hour, 37° C. An excerpt: In this experiment, the effect of a helicase on carboplatin 4.0 was verified by a DNA binding test involved by the helicase, including: using the supercoiled and linear plasmid DNA (Hr. pcDNA, which can be extracted in a conventional manner) as a template, changing the DNA conformation through reactions by combining with different platinum-based anticancer drugs, and then distinguishing different platinum drugs by differences in gel electrophoretograms. […]
The following samples (test numbers 1-5 and M) were analyzed under the above experimental conditions, and the addition of pcDNA, drugs, and helicases in each sample was shown as follows: • Test 1: pcDNA+Carboplatin+T4 • Test 2: pcDNA+Carboplatin 4.0+T4 • Test 3: pcDNA+Carboplatin 4.0 • Test 4: pcDNA+Carboplatin • Test 5: pcDNA Test M: Marker (Reference Standard)

A short description of series [2]: Cytotoxicity experiments for antiviral application. The class given is cell-based.

`N.N.O=C([O-])C1(C(=O)[O-])CCC1.[Pt+2]` [carboplatin]: in the series on linear DNA, the “cross-linking with linear DNA” value was “quickly forms a cross-linked adduct with DNA”. In addition, the “crosslinking with supercoiled plasmid DNA” value with supercoiled plasmid DNA was “crosslinks with the supercoiled plasmid DNA to form a adduct”. The “effect of the helicase on DNA binding of the drug” value in series [1] is given as “no obvious effect”. Also, the “cytotoxicity evaluation for application in an antiviral aspect” value in series [2] is recorded as “hinders its application in the antiviral aspect”.

The values above are taken from US12564569B2, “Carboplatin complex and pharmaceutical preparation thereof” (ADVANCHL BIO[…] CENTER (SHANGHAI), priority 2019, dated 2026).
